Test results published in patent US20160090556A1, “PRODUCTS COMPRISING MALODOR REDUCTION MATERIALS” (The Procter & Gamble Company, priority 2014, published 2016).

Test: Liquid dish neat product liquid-air partition coefficient
Type: physicochemical
Settings: not given

Row | Structure (SMILES) | Log of liquid dish neat product liquid-air partition coefficient (Comment Code K/L)
1 | COc1ccc(CCC(C)=O)cc1 [Material 803] | K (Log of liquid dish neat product liquid-air partition coefficient greater than or equal to −7)
2 | C/C(=C\C#N)CCc1ccccc1 [Material 894] | K (Log of liquid dish neat product liquid-air partition coefficient greater than or equal to −7)
3 | CCC=C1OC(=O)c2ccccc21 [Material 805] | K (Log of liquid dish neat product liquid-air partition coefficient greater than or equal to −7)
4 | CCCC(O)CCC1C(C)CCCC1(C)C (stereo not drawn) [Material 1063] | K (Log of liquid dish neat product liquid-air partition coefficient greater than or equal to −7)
5 | C=C(C)C1CCC(C)(OC(C)=O)CC1 (stereo not drawn) [Material 611] | K (Log of liquid dish neat product liquid-air partition coefficient greater than or equal to −7)
6 | CCC(=O)C=CC1C(C)=CCCC1(C)C (stereo not drawn) [Material 700] | K (Log of liquid dish neat product liquid-air partition coefficient greater than or equal to −7)
7 | CCC(=O)OC1CC2CC1C1CC=CC21 (stereo not drawn) [Material 919] | K (Log of liquid dish neat product liquid-air partition coefficient greater than or equal to −7)
8 | CC(=CCC1CC=C(C)C1(C)C)CO (stereo not drawn) [Material 1025] | K (Log of liquid dish neat product liquid-air partition coefficient greater than or equal to −7)
9 | CC1=CCCC2(C)CCC3CC12OC3(C)C (stereo not drawn) [Material 726] | K (Log of liquid dish neat product liquid-air partition coefficient greater than or equal to −7)
10 | CC1C(C)(C)C2CCC3CC(C)(C)OC3C2C1(C)C (stereo not drawn) [Material 679] | K (Log of liquid dish neat product liquid-air partition coefficient greater than or equal to −7)
11 | CC(=CCCC1(C)C2CC3C(C2)C31C)CO (stereo not drawn) [Material 694] | K (Log of liquid dish neat product liquid-air partition coefficient greater than or equal to −7)
12 | C=C(C)C1CC=C(C=O)CC1 (stereo not drawn) [Material 946] | K (Log of liquid dish neat product liquid-air partition coefficient greater than or equal to −7)
13 | CC1=CCC(O)(C(C)C)CC1 (stereo not drawn) [Material 791] | K (Log of liquid dish neat product liquid-air partition coefficient greater than or equal to −7)
14 | CC(CO)CCCc1ccccc1 (stereo not drawn) [Material 1012] | K (Log of liquid dish neat product liquid-air partition coefficient greater than or equal to −7)
15 | CC(C)=CCC/C(C)=C/CO [Material 1082] | K (Log of liquid dish neat product liquid-air partition coefficient greater than or equal to −7)
16 | CC(=O)O[C@]1(C)CC[C@@]23C[C@@H]1C(C)(C)[C@@H]2CC[C@H]3C [Material 567] | K (Log of liquid dish neat product liquid-air partition coefficient greater than or equal to −7)
17 | CCCCCOC(=O)C=Cc1ccccc1 [Material 671] | K (Log of liquid dish neat product liquid-air partition coefficient greater than or equal to −7)

Same assay, conditions: class code letter within Comment Code

Row | Structure (SMILES) | Log of liquid dish neat product liquid-air partition coefficient (Comment Code K/L)
18 | CCOC(=O)C1CCC(C(=O)OCC)CC1 (stereo not drawn) [Material 347] | K (Log of liquid dish neat product liquid-air partition coefficient greater than or equal to −7)
19 | Cc1ccc(C(C)(C)O)cc1 [Material 4] | K (Log of liquid dish neat product liquid-air partition coefficient greater than or equal to −7)
20 | CC/C=C\CCC1=CCCC1=O [Material 146] | K (Log of liquid dish neat product liquid-air partition coefficient greater than or equal to −7)
21 | Cc1cccc(Oc2ccccc2)c1 [Material 114] | K (Log of liquid dish neat product liquid-air partition coefficient greater than or equal to −7)
22 | CCCC(=O)OC(C)(C)Cc1ccccc1 [Material 432] | K (Log of liquid dish neat product liquid-air partition coefficient greater than or equal to −7)
23 | CC(O)C(C)/C=C1\C[C@H]2C[C@@H]1[C@@H]1C=CC[C@H]21 (stereo partly drawn) [Material 359] | K (Log of liquid dish neat product liquid-air partition coefficient greater than or equal to −7)
24 | CCCCCCCCCCCCOC(C)=O [Material 175] | K (Log of liquid dish neat product liquid-air partition coefficient greater than or equal to −7)
25 | CCOC(=O)C12CCCC1C1CCC2C1 (stereo not drawn) [Material 344] | K (Log of liquid dish neat product liquid-air partition coefficient greater than or equal to −7)
26 | CCOC(C=C(C)CCC=C(C)C)OCC [Material 521] | K (Log of liquid dish neat product liquid-air partition coefficient greater than or equal to −7)
27 | CC1/C=C/CCCCCCCCCCC(=O)C1 (stereo not drawn) [Material 80] | K (Log of liquid dish neat product liquid-air partition coefficient greater than or equal to −7)
28 | CCc1ccc(CC(C)(C)C#N)cc1 [Material 361] | K (Log of liquid dish neat product liquid-air partition coefficient greater than or equal to −7)
29 | O=C1CCC=CCCCCCCCCCC1 [Material 371] | K (Log of liquid dish neat product liquid-air partition coefficient greater than or equal to −7)
30 | CCCCCCCCCCCCCC(=O)OC [Material 104] | K (Log of liquid dish neat product liquid-air partition coefficient greater than or equal to −7)
31 | CCC(=O)OC1CC2C3C=CCC3C1C2(C)C (stereo not drawn) [Material 343] | K (Log of liquid dish neat product liquid-air partition coefficient greater than or equal to −7)
32 | COC1(OC)CCCCCCCCCCC1 [Material 10] | K (Log of liquid dish neat product liquid-air partition coefficient greater than or equal to −7)
33 | CC1=CCC(C(C)CC2CCCC2=O)CC1 (stereo not drawn) [Material 69] | K (Log of liquid dish neat product liquid-air partition coefficient greater than or equal to −7)
34 | C=C1[C@H]2CC[C@H](CO)[C@@]23CC[C@H](C3)C1(C)C [Material 183] | K (Log of liquid dish neat product liquid-air partition coefficient greater than or equal to −7)

Same assay, conditions: code letters K, L

Row | Structure (SMILES) | Comment Code: Log of liquid dish neat product liquid-air partition coefficient
35 | CC(=O)CCc1ccccc1 [Material 640] | K (Log of liquid dish neat product liquid-air partition coefficient greater than or equal to −7)
36 | CC12CCCC(C)(CC1)C2=NO [Material 921] | K (Log of liquid dish neat product liquid-air partition coefficient greater than or equal to −7)
37 | CCOc1cc(COC)ccc1O [Material 115] | K (Log of liquid dish neat product liquid-air partition coefficient greater than or equal to −7)
38 | CC(O)C(C)/C=C1\C[C@H]2C[C@@H]1[C@@H]1C=CC[C@H]21 (stereo partly drawn) [Material 359] | K (Log of liquid dish neat product liquid-air partition coefficient greater than or equal to −7)
39 | CC(C)(C)c1ccc(CC=O)cc1 [Material 994] | K (Log of liquid dish neat product liquid-air partition coefficient greater than or equal to −7)
40 | CCC(=O)OC1CC2CC1C1CC=CC21 (stereo not drawn) [Material 919] | K (Log of liquid dish neat product liquid-air partition coefficient greater than or equal to −7)
41 | C=C[C@](C)(O)CCC=C(C)C [Material 888] | K (Log of liquid dish neat product liquid-air partition coefficient greater than or equal to −7)
42 | C=CCOCCc1ccccc1 [Material 744] | K (Log of liquid dish neat product liquid-air partition coefficient greater than or equal to −7)
43 | CC1=CCCC2(C)CCC3CC12OC3(C)C (stereo not drawn) [Material 726] | K (Log of liquid dish neat product liquid-air partition coefficient greater than or equal to −7)
44 | COc1ccc(COC=O)cc1 [Material 665] | K (Log of liquid dish neat product liquid-air partition coefficient greater than or equal to −7)
45 | CC1C(C)(C)C2CCC3CC(C)(C)OC3C2C1(C)C (stereo not drawn) [Material 679] | K (Log of liquid dish neat product liquid-air partition coefficient greater than or equal to −7)
46 | CC(=CCCC1(C)C2CC3C(C2)C31C)CO (stereo not drawn) [Material 694] | K (Log of liquid dish neat product liquid-air partition coefficient greater than or equal to −7)
47 | CCC(=O)N(CC)c1cccc(C)c1 [Material 755] | K (Log of liquid dish neat product liquid-air partition coefficient greater than or equal to −7)
48 | CCC(=O)OC1CC2C3C=CCC3C1C2(C)C (stereo not drawn) [Material 343] | K (Log of liquid dish neat product liquid-air partition coefficient greater than or equal to −7)
49 | Cc1n[nH]cc1-c1ccccc1 [Material 808] | K (Log of liquid dish neat product liquid-air partition coefficient greater than or equal to −7)
50 | CC(=O)O[C@]1(C)CC[C@@]23C[C@@H]1C(C)(C)[C@@H]2CC[C@H]3C [Material 567] | K (Log of liquid dish neat product liquid-air partition coefficient greater than or equal to −7)
51 | C=C1[C@H]2CC[C@H](CO)[C@@]23CC[C@H](C3)C1(C)C [Material 183] | K (Log of liquid dish neat product liquid-air partition coefficient greater than or equal to −7)
